Patent US9517269B1, “Stable pentobarbital formulation” (Akorn, Inc., priority 2013, dated 2016)

Assays:
[1] = Formulation Development Study #4 (target pH 9.0): physical observations; type: physicochemical; settings: pH ˜9.0 and propylene glycol concentration less than 50%
Procedure: Four lab batches similar to Formulation Development Study #3 were made. The purpose of these batches was to find out if impurity at RRT 0.7 can be reduced by making lab batches with different concentrations of propylene glycol and alcohol at the target pH of 9.0. […] These four lab batches were placed on stability at room temperature, 40° C., and 50° C.

[2] = Formulation Development Study #2 (target pH 8.70): physical observations; type: physicochemical; settings: below pH 8.7
Procedure: Based on Formulation Development Study #1, four more lab batches were made with different concentrations of propylene glycol and ethyl alcohol at target pH 8.70. The purpose of the study was to determine the influence of low pH and different concentrations of propylene glycol and ethyl alcohol on the product quality. Physical observations were recorded during compounding. Lab batch samples were placed on stability at room temperature, 40° C. and 50° C. Only physical observations were performed and recorded during stability. The stability study lasted one month.

[3] = Formulation Development Study #5 (44% propylene glycol): physical observations; type: physicochemical; settings: with 44% propylene glycol at pH-9.0
Procedure: In order to determine at what pH precipitate forms at room temperature, three lab batches were made with 44% propylene glycol and target pH at 9.1, 9.0 and 8.9. […] Lab batch samples were placed on stability at room temperature, 40° C., and 50° C. for three months. Only physical observations were performed during the stability study.

[4] = background statement; cited from earlier work

## CCCC(C)C1(CC)C(=O)NC(=O)NC1=O (stereo not shown) [pentobarbital, 5-Ethyl-5-(1-methylbutyl)-2,4,6(1H,3H,5H)-pyrimidinetrione]
[1]
  Stability of pentobarbital in solution (precipitation): not stable
[2]
  Stability of pentobarbital in solution (precipitation): not stable
[3]
  Stability of pentobarbital in solution (precipitation): not stable
[4]
  pH at which pentobarbital precipitates: less than 9.0
